The values below come from patent publication US20030134859A1 (SANKYO COMPANY, LIMITED, priority 2000, published 2003).

Broadly, the inhibition is the change of the read-out against control, counted positive when it falls. A lower inhibition goes with a response near the control.

For one assay, the system named is Rat white adipocytes. The experiment in a line: Stimulation of differentiation of the adipocytes (Oil Red O). Type of assay: cell-based. The note with it: 100 nM test compound; 5 days; Oil Red O ABS550; control = 100%, blank = 0%; Table 7. Summed up:
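Rat white adipocytes, 5,000 cells/well, cultured 5 days in differentiation-inducing medium with test compound at final 100 nM (0.1% DMSO). Cells fixed, stained with Oil Red O, dye extracted in DMSO and read at 550 nm; differentiation rate expressed relative to vehicle control (100%) and cell-free blank (0%).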
For “N-[3-(Pyrrolidinylsulfonyl)phenyl]-(2-chloro-5-nitrophenyl)carboxamide [Example 154]”, the “Rate of Differentiation (%)” value worked out at 123.8%.

Still in this assay, the particulars now being: Rattus norvegicus, Adipocyte, 120 h, 100 nM test compound; 5 days; Oil Red O ABS550; control = 100%, blank = 0%; Table 7; read-out: Rate of Differentiation (%).
For `O=C(Nc1ccc(S(=O)(=O)N2CCOCC2)cc1)c1cc([N+](=O)[O-])ccc1Cl` [Example 153, N-[4-(Morpholin-4-ylsulfonyl)phenyl]-(2-chloro-5-nitrophenyl)carboxamide], the activity at 0.1 µM is 110%.

`CCCc1ccc(NC(=O)c2cc([N+](=O)[O-])ccc2Cl)cc1` [Example 15, N-(4-Propylphenyl)-(2-chloro-5-nitrophenyl)carboxamide]: the activity at 0.1 µM came out at 124%.

With `O=C(Nc1ccc(NS(=O)(=O)c2ccccc2)cc1)c1cc([N+](=O)[O-])ccc1Cl` [Example 127, N-(4-Benzenesulfonylaminophenyl)-(2-chloro-5-nitrophenyl)carboxamide], the activity at 0.1 µM was 112%.

Regarding `Cc1noc(NS(=O)(=O)c2ccc(NC(=O)c3cc([N+](=O)[O-])ccc3Cl)cc2)c1C` [Example 104, N-[4-[(3,4-Dimethylisoxazol-6-yl)aminosulfonyl]phenyl]-(2-chloro-5-nitrophenyl)carboxamide], the activity at 0.1 µM came to 115%.

For `O=C(Nc1cc([N+](=O)[O-])ccc1Cl)c1cc([N+](=O)[O-])ccc1Cl` [Example 28, N-(2-Chloro-5-nitrophenyl)-(2-chloro-5-nitrophenyl)carboxamide], the activity at 0.1 µM is 111%.

Take `O=C(Nc1ccc(S(=O)(=O)N2CCCCC2)cc1)c1cc([N+](=O)[O-])ccc1Cl` [Example 151, N-[4-(Piperidyisulfonyl)phenyl]-(2-chloro-5-nitrophenyl)carboxamide]: the activity at 0.1 µM was 118%.

Take `O=C(Nc1nc(Cl)cc(Cl)n1)c1cc([N+](=O)[O-])ccc1Cl` [Example 83, N-(4,6-Dichloropyrimidin-2-yl)-(2-chloro-5-nitrophenyl)carboxamide]: the activity at 0.1 µM was determined as 114%.

As for `Cc1ccc(C(=O)Nc2ccc(NC(=O)c3cc([N+](=O)[O-])ccc3Cl)cc2)cc1` [Example 121, N-[4-(4-Methylbenzoyl)aminophenyl]-(2-chloro-5-nitrophenyl)carboxamide], the activity at 0.1 µM is 136%.

As to `O=C(Nc1nccc2ccccc12)c1cc([N+](=O)[O-])ccc1Cl` [Example 59, N-(Isoquinolin-1-yl)-(2-chloro-5-nitrophenyl)carboxamide], the activity at 0.1 µM was found to be 121%.

Take `O=C(Nc1ccc(C(=O)N2CCCCC2)cc1)c1cc([N+](=O)[O-])ccc1Cl` [Example 159, N-[4-(Piperidylcarbonyl)phenyl]-(2-chloro-5-nitrophenyl)carboxamide]: the activity at 0.1 µM was 123%.

In the case of `CC(C)(C)c1cc(NS(=O)(=O)c2cccc(NC(=O)c3cc([N+](=O)[O-])ccc3Cl)c2)cc(C(C)(C)C)c1O` [Example 161, N-[3-[(3,5-di-tert-Butyl-4-hydroxyphenyl)aminosulfonyl]phenyl]-(2-chloro-5-nitrophenyl)carboxamide], the activity at 0.1 µM worked out at 113%.

A further assay deals with TNF-α production. The experiment in a line: Inhibitory activity against cytokine (TNF-α) production in LPS-stimulated RAW264.7 cells. Type of assay: cell-based, mouse. Particulars: 1 μM test compound, LPS 10 ng/mL, 15 hr. The procedure, abridged:
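Mouse RAW264.7 macrophages (5,000 cells/well) stimulated with 10 ng/mL LPS (final) and treated with test compound at 1 μM final for 15 h at 37 °C. Supernatant mouse TNF-α measured by ELISA; % inhibition = 100−(A−B)/(C−B)×100, using unstimulated and LPS-only controls.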
On to “N-[4-(Benzenesulfonylaminophenyl)phenyl]-(2-chloro-5-nitrophenyl)carboxamide [Example 128]”, for which the “Inhibitory Activity (%) against TNF-α production” value was 28.8%.

The same assay, now with this note: 1 μM test compound, LPS 10 ng/mL, 15 hr, 1 µM.
Turning to `Nc1ccc(-c2ccc(NC(=O)c3cc([N+](=O)[O-])ccc3Cl)cc2)cc1` [Example 192, N-[4-(4-Aminophenyl)phenyl]-(2-chloro-5-nitrophenyl)carboxamide], the “Inhibitory Activity (%) against TNF-α production” value was 27.9%.

The assay is the same for the next values; noted with them: Mus musculus, 1 μM test compound, LPS 10 ng/mL, 15 hr.
`O=C(Nc1ccc([N+](=O)[O-])cc1)c1cc([N+](=O)[O-])ccc1Cl` [Example 23, N-(4-Nitrophenyl)-(2-chloro-5-nitrophenyl)carboxamide]: 1 µM produced 24.4% inhibition.

The same assay, now with this note: Mus musculus, RAW264.7, 15 h, 1 μM test compound, LPS 10 ng/mL.
Take `CCS(=O)(=O)N(c1ccc(-c2ccc(NC(=O)c3cc([N+](=O)[O-])ccc3Cl)cc2)cc1)S(=O)(=O)CC` [Example 276, N-[4-[4-(N,N-Diethanesulfonylamino)phenyl]phenyl]-(2-chloro-5-nitrophenyl)carboxamide]: at 1 µM the inhibition was 28.5%.

Take `CCCCCN(CC)c1ccc(-c2ccc(NC(=O)c3cc([N+](=O)[O-])ccc3Cl)cc2)cc1` [Example 216, N-[4-[4-(N-Ethyl-N-pentylamino)phenyl]phenyl]-(2-chloro-5-nitrophenyl)carboxamide]: the inhibition at 1 µM was 30.6%.

The compound `CCCCN(CCCC)c1ccc(-c2ccc(NC(=O)c3cc([N+](=O)[O-])ccc3Cl)cc2)cc1` [Example 207, N-[4-[4-(N,N-Dibutylamino)phenyl]phenyl]-(2-chloro-5-nitrophenyl)carboxamide] showed an inhibition at 1 µM of 27.1%.

Consider `CCCCCN(CCCCC)c1ccc(-c2ccc(NC(=O)c3cc([N+](=O)[O-])ccc3Cl)cc2)cc1` [Example 214, N-[4-[4-(N,N-Dipentylamino)phenyl]phenyl]-(2-chloro-5-nitrophenyl)carboxamide], for which the inhibition at 1 µM was 20.1%.

Consider `CCN(C)c1ccc(-c2ccc(NC(=O)c3cc([N+](=O)[O-])ccc3Cl)cc2)cc1` [Example 218, N-[4-[4-(N-Ethyl-N-methylamino)phenyl]phenyl]-(2-chloro-5-nitrophenyl)carboxamide], for which 1 µM produced 20.3% inhibition.

`O=C(Nc1nc(-c2ccc3ccccc3c2)cs1)c1cc([N+](=O)[O-])ccc1Cl` [Example 42, N-[4-(2-Naphthyl)thiazol-2-yl)-(2-chloro-5-nitrophenyl)carboxamide] displayed an inhibition at 1 µM of 18.8%.

In the case of `O=C(Nc1ccc(-c2ccc(NC(=S)Nc3cccc(F)c3)cc2)cc1)c1cc([N+](=O)[O-])ccc1Cl` [Example 245, N-[4-[4-[(3-Fluorophenyl)aminothiocarbonylamino]phenyl]phenyl]-(2-chloro-5-nitrophenyl)carboxamide], the inhibition at 1 µM came to 34.6%.

The compound `CCCN(CCC)c1ccc(-c2ccc(NC(=O)c3cc([N+](=O)[O-])ccc3Cl)cc2)cc1` [Example 194, N-[4-[4-(N,N-Dipropylamino)phenyl]phenyl]-(2-chloro-5-nitrophenyl)carboxamide] gave an inhibition at 1 µM of 18.4%.

`CCNc1ccc(-c2ccc(NC(=O)c3cc([N+](=O)[O-])ccc3Cl)cc2)cc1` [Example 205, N-[4-[4-(N-Ethylamino)phenyl]phenyl]-(2-chloro-5-nitrophenyl)carboxamide]: the inhibition at 1 µM amounted to 34.9%.

As to `CCCCCN(CCCC)c1ccc(-c2ccc(NC(=O)c3cc([N+](=O)[O-])ccc3Cl)cc2)cc1` [Example 206, N-[4-[4-(N-Butyl-N-pentylamino)phenyl]phenyl]-(2-chloro-5-nitrophenyl)carboxamide], the inhibition at 1 µM is 27.5%.

The compound `Cc1ccc(C(=O)Nc2nc3ccc(NC(=O)c4cc([N+](=O)[O-])ccc4Cl)cc3s2)cc1` [Example 149, N-[2-(4-Methylbenzoylamino)benzothiazol-6-yl]-(2-chloro-5-nitrophenyl)carboxamide] showed an inhibition at 1 µM of 18.8%.

Take `O=C(Nc1cnc2ccccc2c1)c1cc([N+](=O)[O-])ccc1Cl` [Example 55, N-(3-Quinolinyl)-(2-chloro-5-nitrophenyl)carboxamide]: at 1 µM the inhibition was 15.3%.

`O=C(NC(=S)NCCc1ccc(NC(=O)c2cc([N+](=O)[O-])ccc2Cl)cc1)c1ccccc1` [Example 271, N-[4-(2-Phenylcarbonylaminothiocarbonylaminoethyl)phenyl]-(2-chloro-5-nitrophenyl)carboxamide] yielded an inhibition at 1 µM of 25.2%.

With `Cc1ccc(S(=O)(=O)Nc2ccc(-c3ccc(NC(=O)c4cc([N+](=O)[O-])ccc4Cl)cc3)cc2)cc1` [Example 94, N-[4-[4-(4-Toluenesulfonylamino)phenyl]phenyl]-(2-chloro-5-nitrophenyl)carboxamide], at 1 µM the inhibition was 34.8%.

As for `CCOC(=O)NC(=S)Nc1ccc(-c2ccc(NC(=O)c3cc([N+](=O)[O-])ccc3Cl)cc2)cc1` [Example 251, N-[4-[4-(Ethoxycarbonylaminothiocarbonylamino)phenyl]phenyl]-(2-chloro-5-nitrophenyl)carboxamide], the inhibition at 1 µM came out at 29%.

For `CCCNc1ccc(-c2ccc(NC(=O)c3cc([N+](=O)[O-])ccc3Cl)cc2)cc1` [Example 204, N-[4-[4-(N-Propylamino)phenyl]phenyl]-(2-chloro-5-nitrophenyl)carboxamide], at 1 µM the inhibition was 32.7%.

In the case of `CC(C)(C)OC(=O)Nc1ccc(-c2csc(NC(=O)c3cc([N+](=O)[O-])ccc3Cl)n2)cc1` [Example 190, N-[4-(4-tert-Butoxycarbonylaminophenyl)thiazol-2-yl]-(2-chloro-5-nitrophenyl)carboxamide], the inhibition at 1 µM was determined as 33.8%.

The compound `CCCCN(CCC)c1ccc(-c2ccc(NC(=O)c3cc([N+](=O)[O-])ccc3Cl)cc2)cc1` [Example 208, N-[4-[4-(N-Butyl-N-propylamino)phenyl]phenyl]-(2-chloro-5-nitrophenyl)carboxamide] registered an inhibition at 1 µM of 26.3%.

`O=C(Nc1ccc(Cl)nc1)c1cc([N+](=O)[O-])ccc1Cl` [Example 62, N-(6-Chloropyridin-3-yl)-(2-chloro-5-nitrophenyl)carboxamide] gave an inhibition at 1 µM of 20.5%.

Regarding `CCCN(CC)c1ccc(-c2ccc(NC(=O)c3cc([N+](=O)[O-])ccc3Cl)cc2)cc1` [Example 212, N-[4-[4-(N-Ethyl-N-propylamino)phenyl]phenyl]-(2-chloro-5-nitrophenyl)carboxamide], the inhibition at 1 µM came to 31.2%.
